This is an account of results in patent US8883512B1, “Method for diagnosing gestational diabetes, preeclampsia, and fetal growth restriction” (priority 2011, dated 2014).

Entries after “also recorded” stand apart in the source; their conditions may differ.

For data set [1] the following is noted: better designed (low bias) trials of antioxidant supplements; cited from earlier work.
Data set [2] relates to pregnant Sprague-Dawley rats. The data set can be described thus: RAR-alpha antagonist Ro41-5253 in the STZ (75 mg/kg) model of gestational diabetes. Type of data set: in vivo, rat. The protocol: (§1) The specific aims of this second experiment were to test the hypothesis that complications associated with GDM could be ameliorated with the retinoic acid receptor-alpha (RAR-alpha) antagonist, Ro41-5253. On day 6 of gestation, Sprague-Dawley rats were randomly assigned to one of five groups: 1) saline-infused controls; 2) STZ, 75 mg/kg I.P.; 3) STZ, 50 mg/kg I.P.; 4) STZ, 75+Ro41-5253 (0.5 mg/kg I.P. daily for 10 d); or 5) STZ, 75+Ro41-5253 (1.0 mg/kg I.P. daily for 10 days). Ro41-5253 was provided as a gift from Roche. On day 19, after carotid artery catheters were implanted for measurement of arterial pressure, the animals were sacrificed, fetal and placental weights were determined, and blood samples were obtained to measure liver enzymes and glucose.

In data set [3] the test system is pregnant Sprague-Dawley rats. The experiment in a line: Streptozotocin (STZ) animal model of gestational diabetes and preeclampsia: blood glucose, liver enzymes, arterial pressure, fetal and placental weights. Type of data set: in vivo, rat. The protocol:
Pregnant Sprague-Dawley rats on day 6 of gestation were randomly assigned to STZ at 75 mg/kg I.P. or saline-infusion. On day 19, carotid artery catheters were implanted for measurement of arterial pressure, after which the animals were sacrificed, fetal and placental weights determined and blood samples obtained to measure liver enzymes and glucose. Subsequently, using the same procedure, a separate group of pregnant rats (n=10/group) was randomly assigned to receive STZ at 75 mg/kg I.P. or saline infusion. Serum concentrations of retinol, retinoic acid, and retinyl esters were determined in these animals by HPLC on Day 20. Retinoid toxicity was defined as the percentage of retinyl esters >10%.
as §1

Setting [4] is: STZ 75 mg/kg, I.P. Ro41-5253, listed as retinoid receptor antagonist.

Consider vitamin A, for which the “increased risk of mortality” value in data set [1] is recorded as 16%.

Consider vitamin E, for which the “increased risk of mortality” value in data set [1] is listed as 4%.

Regarding `CCCCCCCOc1cc2c(cc1/C(C)=C/c1ccc(C(=O)O)cc1)C(C)(C)CCS2(=O)=O` [Ro41-5253], the “effect on blood glucose following STZ” value is “not by the lower dose; also recorded: no effect” in data set [2] (Ro41-5253 0.5 mg/kg I.P. daily for 10 d, STZ 75 mg/kg) and “reduced; also recorded: decrease of approximately one-third” in data set [2] (Ro41-5253 1.0 mg/kg I.P. daily for 10 days, STZ 75 mg/kg). In addition, in data set [2] (STZ 75 mg/kg, FIG. 3), the “reduction of alkaline phosphatase levels induced by STZ” value was “about 20%”. Also, the “effect on alanine aminotransferase (ALT) elevation following STZ” value is given as “markedly reduced (almost to control levels)” in data set [2] (STZ 75 mg/kg, I.P. Ro41-5253) and “markedly reduced” in data set [2] (setting [4]). Also, the “effect on aspartate aminotransferase (AST) elevation following STZ” value in data set [2] (STZ 75 mg/kg, I.P. Ro41-5253) was “markedly reduced (almost to control levels)”; in data set [2] (setting [4]) it was “markedly reduced”. The “effect on alkaline phosphatase (AP) levels induced by STZ” value in data set [2] (STZ 75 mg/kg, I.P. Ro41-5253, listed as RAR-alpha antagonist) is reported as “increased alkaline phosphatase levels in all animals, with or without”. Also, in data set [2] (STZ model, day 19), the placental weights result is given as “unaffected”. Further, the “effect on trend towards increased arterial pressure” value in data set [2] (higher dose of STZ, doses investigated) was “did not appear to be ameliorated”.

Turning to `CC1=C(/C=C/C(C)=C/C=C/C(C)=C/C=C/C=C(C)/C=C/C=C(C)/C=C/C2=C(C)CCCC2(C)C)C(C)(C)CCC1` [beta-carotene], the “increased risk of mortality” value in data set [1] is given as 7%.

As to `CN(N=O)C(=O)N[C@H]1C(O)O[C@H](CO)[C@@H](O)[C@@H]1O` (mixture of isomers) [STZ, streptozotocin], the “blood glucose levels (mean)” value in data set [3] (STZ 75 mg/kg I.P. on gestation day 6, blood on day 19, saline controls 104) is listed as 533 mg/dL. Also, the “pup weights (mean)” value in data set [3] (STZ 75 mg/kg I.P., controls 4.6) amounted to 1.4 g. The “alanine aminotransferase (mean)” value in data set [3] (STZ 75 mg/kg I.P., controls 63) amounted to 326 U/L. The “alkaline phosphatase (mean)” value in data set [3] (STZ 75 mg/kg I.P., controls 123) worked out at 576 U/L. Moreover, in data set [3] (STZ 75 mg/kg I.P., controls 152), the “asparate aminotransferase levels (mean)” value is on record as 842 U/L. For the same compound, in data set [3] (STZ, day 19), the placental weights result is given as “unaffected”. Further, in data set [3] (groups receiving 75 mg/kg of STZ alone), the “fetus size versus controls” value is listed as “smaller than controls”. For the same compound, in data set [3] (groups receiving both doses of STZ, P=0.1386), the arterial pressure result is on record as “non-significant trend towards increased levels”.
